{
  "source": "patent US20040258620A1",
  "about": "“(Ethylene)-( propylene)-triaminepentaacetic acid derivatives, process for their production, and their use for the production of pharmaceutical agents” (priority 2001, published 2004)",
  "experiment": "17O NMR on Gd(TRITA-bz-NO2)",
  "assay_type": "physicochemical",
  "conditions": "for A/ħ / ER / ΔH^x / ΔS* / τR^298: from ^17O NMR data; for kex^298: water exchange rate from ^17O NMR data; for In(1/T1r), reduced longitudinal ^17O relaxation rate / In(1/T2r), reduced transverse ^17O relaxation rate / Δwr, reduced ^17O chemical shift: B = 9.4 Tesla",
  "description": "The rate of water exchange, Kes, has been measured on Gd(TRITA-bz-NO2) by ^17O NMR. The numerical experimental data (reduced transverse and longitudinal ^17O relaxation rates, reduced chemical shifts) measured on a Gd(TRITA-bz-NO2) solution are shown in Table 6.",
  "data": [
    {"compound": "O=C([O-])CN1CCN(CC(=O)[O-])CCN(CC(=O)[O-])CCN(CC(=O)[O-])CC1.[Gd+3]", "note": "[Gd(DOTA)(H2O)^−, reference compound]", "values": [
      {"measurement": "A/ħ", "result": "−3.7 10^6 rad s^−1"},
      {"measurement": "ER", "result": 3.85, "unit": "kcal/mol"},
      {"measurement": "ΔH^x", "result": 11.9, "unit": "kcal/mol"},
      {"measurement": "ΔS*", "result": "+10.5 Jmol^−1K^−1"},
      {"measurement": "τR^298", "result": 77, "unit": "ps"},
      {"measurement": "kex^298", "result": "4.1 10^6 s^−1"}
    ]},
    {"compound": "O=C([O-])CN1CCN(CC(=O)[O-])CCN(CC(=O)[O-])CC(Cc2ccc([N+](=O)[O-])cc2)CN(CC(=O)[O-])CC1.[Gd+3]", "note": "[Gd(TRITA-bz-NO2)]", "values": [
      {"measurement": "water exchange rate Kex^298", "result": "1.8e+08", "unit": "s⁻¹"},
      {"measurement": "In(1/T1r), reduced longitudinal ^17O relaxation rate", "setting": "T 273.05 K", "result": 11.42},
      {"measurement": "In(1/T2r), reduced transverse ^17O relaxation rate", "setting": "T 273.05 K", "result": 13.55},
      {"measurement": "Δwr, reduced ^17O chemical shift", "setting": "T 273.05 K", "result": "−9.34E+05", "unit": "Hz"},
      {"measurement": "In(1/T1r), reduced longitudinal ^17O relaxation rate", "setting": "T 281.75 K", "result": 11.08},
      {"measurement": "In(1/T2r), reduced transverse ^17O relaxation rate", "setting": "T 281.75 K", "result": 13.31},
      {"measurement": "Δwr, reduced ^17O chemical shift", "setting": "T 281.75 K", "result": "−9.23E+05", "unit": "Hz"},
      {"measurement": "In(1/T1r), reduced longitudinal ^17O relaxation rate", "setting": "T 292.45 K", "result": 10.60},
      {"measurement": "In(1/T2r), reduced transverse ^17O relaxation rate", "setting": "T 292.45 K", "result": 12.96},
      {"measurement": "Δwr, reduced ^17O chemical shift", "setting": "T 292.45 K", "result": "−9.15E+05", "unit": "Hz"},
      {"measurement": "In(1/T1r), reduced longitudinal ^17O relaxation rate", "setting": "T 302.25 K", "result": 10.44},
      {"measurement": "In(1/T2r), reduced transverse ^17O relaxation rate", "setting": "T 302.25 K", "result": 12.54},
      {"measurement": "Δwr, reduced ^17O chemical shift", "setting": "T 302.25 K", "result": "−8.72E+05", "unit": "Hz"},
      {"measurement": "In(1/T1r), reduced longitudinal ^17O relaxation rate", "setting": "T 317.25 K", "result": 9.97},
      {"measurement": "In(1/T2r), reduced transverse ^17O relaxation rate", "setting": "T 317.25 K", "result": 12.03},
      {"measurement": "Δwr, reduced ^17O chemical shift", "setting": "T 317.25 K", "result": "−8.28E+05", "unit": "Hz"},
      {"measurement": "In(1/T1r), reduced longitudinal ^17O relaxation rate", "setting": "T 330.25 K", "result": 9.58},
      {"measurement": "In(1/T2r), reduced transverse ^17O relaxation rate", "setting": "T 330.25 K", "result": 11.56},
      {"measurement": "Δwr, reduced ^17O chemical shift", "setting": "T 330.25 K", "result": "−7.07E+05", "unit": "Hz"},
      {"measurement": "In(1/T1r), reduced longitudinal ^17O relaxation rate", "setting": "T 349.45 K", "result": 9.14},
      {"measurement": "In(1/T2r), reduced transverse ^17O relaxation rate", "setting": "T 349.45 K", "result": 11.06},
      {"measurement": "Δwr, reduced ^17O chemical shift", "setting": "T 349.45 K", "result": "−6.13E+05", "unit": "Hz"},
      {"measurement": "inner sphere water molecules of the complex", "setting": "according to the ^17O chemical shifts", "result": 1},
      {"measurement": "A/ħ", "result": "−3.5 ± 0.2 10^6 rad s^−1"},
      {"measurement": "ER", "result": "5.57 ± 0.406", "unit": "kcal/mol"},
      {"measurement": "ΔH^x", "result": "6.41 ± 0.19", "unit": "kcal/mol"},
      {"measurement": "ΔS*", "result": "+3.0 ± 1.0 Jmol^−1K^−1"},
      {"measurement": "τR^298", "result": "223 ± 20", "unit": "ps"},
      {"measurement": "water exchange rate, times higher than that measured on Gd(DOTA)", "setting": "relative to Gd(DOTA)", "result": "over 40 times"},
      {"measurement": "kex^298", "result": "180 ± 10 10^6 s^−1"}
    ]}
  ]
}
